# Test results from paper PMC8891364, “Synthesis, and docking studies of novel heterocycles incorporating the indazolylthiazole moiety as antimicrobial and anticancer agents” (Scientific Reports, 2022).
# Values joined by “and” are separate entries in the source; they are usually repeats but may differ in a detail not shown here. Equal entries are not always repeated.
# Experiments:
# [1] = system: HFB-4 cells; assay: MTT cytotoxicity assay, normal human melanocytes; type: cell-based; details: Melanocyte, 48 h
# Procedure: (§1) The human melanocytes (HFB-4) cells, hepatoma (HepG-2) cells, and colon carcinoma (Caco-2) cells were obtained from American Type Culture Collection (ATCC, USA). The cytotoxicity of the newly synthesized compounds (at various concentrations) was determined using the 3-[4, 5-dimethylthiazol]-2, 5-diphenyltetrazolium bromide method (MTT assay)[59] against HFB-4 cells (normal human melanocytes), HepG-2 cells (hepatoma), and Caco-2 cells (colon carcinoma). Normal and cancer cells (1.0 × 10^4) were cultured in sterile 96-well microplates, and incubated for 24 h in DMEM (Lonza, USA) supplemented with 10% fetal bovine serum (Gibco, USA) for HFB-4 and Caco-2 cells or in an RPMI-1640 medium (Lonza, USA) supplemented with 10% FBS for HepG-2 cells. After 24 h of incubation, different doses of the tested synthesized compounds ([…]) were added in triplicate to all cells and incubated for another 48 h in 5% CO2. After washing the cells 3 times with fresh media, to remove dead cells and debris, a solution of MTT (Sigma -Aldrich, 0.5 mg/mL) was added to each well and further incubated for 2–5 h at 37 °C. Afterward, the MTT solution was decanted and 200 µL of DMSO was added. The optical density was measured at 570 nm using a microplate reader (BMG LabTech, Germany), where the cells’ relative viability (%) was estimated using the following equation: viability of cells (%) = [A1 − A0/AU − A0] × 100, where A1 is the absorbance of the test compound, A0 is the absorbance of the blank, and AU is the absorbance of untreated cells (control).
# (§2) The antitumor activity of the synthesized compound was determined by calculating the IC50 value (half maximal inhibitory concentration) using Graph Pad Prism 6.0 software. The value of IC50 indicates the derivative concentration that causes 50% cell death, whereas the value of the selectivity index (SI), indicating the ratio of the IC50 value of normal cells versus the IC50 value of tumor cells, was also included as reported by[60],[61].
# [2] = system: HepG-2 cells; assay: MTT antitumor assay, hepatoma cells; type: cell-based, human; details: for IC50: Homo sapiens, HepG2, 48 h; for SI HepG-2: ratio of IC50 of normal cells (HFB-4) versus IC50 of tumor cells
# Procedure: as §1, §2
# [3] = system: Caco-2 cells; assay: MTT antitumor assay, colon carcinoma cells; type: cell-based; details: for IC50: Homo sapiens, Caco-2, 48 h; for SI Caco-2: ratio of IC50 of normal cells (HFB-4) versus IC50 of tumor cells
# Procedure: as §1, §2
# [4] = system: Bcl-2 gene; assay: qRT-PCR gene expression in HepG-2 and Caco-2 cells; type: cell-based, human; details: for gene expression of Bcl-2: HepG-2 and Caco-2 cells, IC50 concentrations, 2 days, compared to 5-FU and untreated cells; for downregulation of Bcl-2 expression, fold: compared to control cells
# Procedure: (§3) The effects of the potent antitumor derivatives (4, 6, and 8) on the expression level of some tumor regulating genes were elucidated through quantitative real-time PCR (qRT- PCR) and compared to 5-fluorouracil (5-FU) as a reference antitumor drug. Five genes were assessed, including the tumor oncogene (Bcl-2), tumor suppressor gene (p53), matrix metalloproteinase gene (MMP-9), vascular endothelial growth factor gene (VEGF), and beta-catenin protein gene (β-catenin), in HepG-2 and Caco-2 cells, before and after treatment for 2 days with IC50 concentrations for compounds 4, 6, and 8. Following the extraction of total RNA from the tested cells, using the Gene JET RNA Purification Kit (Thermo Scientific, USA), cDNA synthesis was performed according to the cDNA Synthesis Kit protocol (Thermo Scientific, USA). qRT PCR was performed using the SYBR green kit and specific primers (Forward/Reverse) as follows: 5′-[…]-3'/5'-TCG GTCTCCTAAAAGCAGGC-3′ for the Bcl-2 gene, 5′-TAACAGTTCCTGCATG GG CG GC-3′/5′-[…]-3′ for p53, 5'-CTGCGTATTTCCATT CATC-3'/5'-CCTTGGGTCAGGTTTAGAG-3' for the MMP-9 gene, 5'-GGCTTTACT GCTGTACCTCC-3'/5'-CAAATGCTTTCTCCGCTCT-3' for the VEGF gene, and 5'-CATATGCGGCTGCTG TTCTA-3'/5'-CCGAAAG CCGTTTCTTGTAG-3' for the β-catenin gene. The upregulation and/or downregulation of the expression of the tested genes in Caco-2 and HepG-2 cells was determined by using the equation 2^−ΔΔCT[60].
# [5] = system: MMP-9 gene; assay: qRT-PCR gene expression in HepG-2 and Caco-2 cells; type: cell-based, human; details: IC50 concentrations, 2 days, compared to 5-FU and untreated cells
# Procedure: as §3
# [6] = system: VEGF gene; assay: qRT-PCR gene expression in HepG-2 and Caco-2 cells; type: cell-based, human; details: IC50 concentrations, 2 days, compared to 5-FU and untreated cells
# Procedure: as §3
# [7] = system: β-catenin gene; assay: qRT-PCR gene expression in HepG-2 and Caco-2 cells; type: cell-based, human; details: IC50 concentrations, 2 days
# Procedure: as §3
# [8] = system: Caco-2 cells; assay: Cell cycle arrest analysis by flow cytometry; type: cell-based, human; details: 48 h, IC50 concentrations, vs untreated control
# Procedure: The cell cycle arrest of treated Caco-2 cells was evaluated through flow cytometry (Partec, Germany) in comparison with untreated cells and treated cells with 5-FU as a positive control[60],[62]. […] After washing the cells three times, the cells were fixed by adding 1 mL of 70% cold ethanol dropwise with a gentle vortex. Caco-2 cells were washed three times again with cold PBS and incubated in 1 mL of PBS containing 5 μg/mL RNase A (Sigma-Aldrich) for 1 h at 37 °C. Then 10 μL of PI (Sigma-Aldrich) was added to cells at a final concentration of 1 mg/mL in deionized water and left at 4 °C until analysis in the dark. The cell cycle of Caco-2 cells before and after treatment was analyzed by FACS using Cell Quist and Mod Fit software by reading at 488 nm.
# [9] = system: Candida albicans ATCC 10231; assay: Antimicrobial microtiter-plate MIC assay; type: cell-based; details: Candida albicans, ATCC10231; 24 h, 37 °C
# Procedure: (§4) The antimicrobial activity of the newly synthesized compounds (2–9) was evaluated against three model pathogenic microorganisms as follows: Streptococcus mutans ATCC 25175 (Gram-positive bacterium); Pseudomonas aeruginosa ATCC 27853 (Gram-negative bacterium); and Candida albicans ATCC 10231 (fungi-like unicellular organism). After cultivating the three tested pathogens overnight in LB broth, 100 µL of each tested organism (10^6 CFU/mL) was added separately to 100 µL of the serially diluted test compounds (5–80 µg) in a 96-well tissue culture plate and incubated at 37 °C for 24 h. Eventually, microbial growth was measured at 600 nm, and the results are presented in the form of MIC (Table 4). Two antibacterial reference drugs, ampicillin and ciprofloxacin, and one antifungal drug, clotrimazole, were incorporated into the experiments.
# [10] = system: Pseudomonas aeruginosa ATCC 27853; assay: Antimicrobial microtiter-plate MIC assay; type: cell-based; details: Pseudomonas aeruginosa, ATCC27853; 24 h, 37 °C
# Procedure: as §4
# [11] = system: Streptococcus mutans ATCC 25175; assay: Antimicrobial microtiter-plate MIC assay; type: cell-based; details: Streptococcus mutans, ATCC25175, 24 h, read-out: MIC Streptococcus mutant
# Procedure: as §4
# [12] = system: Pseudomonas aeruginosa; assay: Microbial-biofilm inhibition, tissue-culture plate technique (TCP); type: cell-based; details: 25 µg/mL, 24 h
# Procedure: (§5) The activity of the newly synthesized compounds against microbial biofilm formation was estimated through the tissue-culture plate technique (TCP) as follows: the three above-mentioned pathogens, Streptococcus mutans, Pseudomonas aeruginosa, and Candida albicans were cultivated overnight in LB broth at 37 °C. Afterward, 200 µL of each diluted organism (10^6 CFU/mL) was inoculated separately (in triplicate) into 96-well tissue culture plates and incubated overnight at 37 °C. The free planktonic cells were removed, after the incubation period, by flipping the plate and washing each well three times with phosphate-buffered-saline (PBS), pH 7.1. To each well, 175 µL of fresh LB broth was added along with 25 µL of the tested compound (25 µg/mL final concentrations). The plates were reincubated at 37 °C for another 24 h, washed with PBS buffer pH 7.1 three times, and dried for 5 min at 50 °C. The formed biofilm was stained with crystal violet solution (0.1% w/v) for 5 min. The excess stain was decanted, and the stained biofilm was solubilized with 200 µL of glacial acetic acid (30% v/v), where the developed blue color was measured at 590 nm. The results are expressed as relative inhibition (%) compared to untreated groups (control). Controls were prepared by culturing the three pathogens on LB medium without any tested compounds.
# [13] = system: Streptococcus mutans; assay: as above; type: cell-based; details: 25 µg/mL, 24 h
# Procedure: as §5
# [14] = system: Candida albicans; assay: as above; type: cell-based; details: Candida albicans, 24 h, relative to untreated
# Procedure: as §5
Compound,IC50 [1] [µg/mL],"IC50 ([2]; MTT, 48 h) [µg/mL]",SI HepG-2 [2],"IC50 ([3]; MTT, 48 h) [µg/mL]",SI Caco-2 [3],gene expression of Bcl-2 [4],"downregulation of Bcl-2 expression, fold [4]",gene expression of MMP-9 [5],gene expression of VEGF [6],expression of the β-catenin gene [7],apoptotic phase (sub-G1) population [8],synthesis (S) phase population [8],MIC [9] [µg/mL],MIC [10] [µg/mL],MIC [11] [µg/mL],antibiofilm formation activity Streptococcus mutans (in words) [13],other results
"N#Cc1c(N)oc2nc(N3NC4=C(CCCC4)C3c3ccccc3)sc12 (centres unmarked) [Compound 4, 5-amino-2-(3-phenyl-1,3,4,5,6,7-hexahydro-2H-indazol-2-yl)furo[2,3-d] thiazole-6-carbonitrile]",142 ± 1.48,7.88 ± 0.1,18.1 and 18.06 ± 0.19,6.18 ± 1.14,23 and 23.03 ± 0.24,significantly downregulated,more than threefold,significantly downregulated,significantly downregulated,significantly suppressed,becomes detectable after treatment,decreased,48.9 ± 1.05,60.8 ± 2.22,34.41 ± 0.237,had antibiofilm formation activities,biofilm inhibition activity Pseudomonas aeruginosa (in words) [12]: high biofilm inhibition activity
"NNC(=O)c1c(N)sc2sc(N3NC4=C(CCCC4)C3c3ccccc3)nc12 (centres unmarked) [Compound 6, 5-amino-2-(3-phenyl-1,3,4,5,6,7-hexahydro-2H-indazol-2-yl)thieno[3,2-d] thiazole-6-carbohydrazide]",133 ± 4.18,6.12 ± 0.19,21.8 and 21.75 ± 0.03,5.21 ± 0.22,25.6 and 25.59 ± 0.03,significantly downregulated,more than threefold,significantly downregulated,significantly downregulated,significantly suppressed,becomes detectable after treatment,decreased,57.3 ± 1.32,58.5 ± 2.27,39.58 ± 0.348,,inhibition at 25 µg/mL [14]: 61%
"N#CCc1nn(N)c2nc(N3NC4=C(CCCC4)C3c3ccccc3)sc12 (centres unmarked) [Compound 8, 2-(1-amino-5-(3-phenyl-1,3,4,5,6,7-hexahydro-2H-indazol-2-yl)-1H-pyrazolo [3,4-d]thiazol-3-yl)acetonitrile]",154 ± 1.76,~5.9,26.23 ± 0.30,~5.9,26.08 ± 0.30,significantly downregulated,more than threefold,significantly downregulated,significantly downregulated,significantly suppressed,becomes detectable after treatment,decreased,56.2 ± 1.24,53 ± 2.18,15.8 ± 0.205,had antibiofilm formation activities,"IC50 HepG-2 ([2]; MTT, 48 h): 5.86 ± 0.34 µg/mL; SI HepG-2 ([2]; listed as Derivative 8): about 26; IC50 Caco-2 ([3]; MTT, 48 h): 5.89 ± 0.38 µg/mL; SI Caco-2 ([3]; listed as Derivative 8): about 26"
